This is an account of results in patent publication US20250034165A1, “COMPOUND CONTAINING CYCLOALKYL OR HALOALKYL” (CHIA TAI TIANQING PHARMACEUTICAL GROUP CO., LTD., priority 2021, published 2025).

The structures appear in SMILES notation. Where two headings read alike, the source gives them in different places.

The target of data set [1] is EGFR (d746-750 (d19)/T790M) (Homo sapiens (Human), UniProt P00533, DEL746-750/T790M). Put plainly: Inhibitory activity for EGFR (d746-750 (d19)/T790M) kinase. It counts as biochemical. The conditions noted are these: ATP 5 μM. A digest of the protocol:
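Recombinant EGFR d746-750/T790M (0.003 ng/μL final) preincubated 30 min with compound (10 to 0.0024 nM, 4-fold steps), then 5 μM ATP and 0.1 μM ULight-poly GT added for 2 h at room temperature. EDTA stop, Eu-anti-phosphotyrosine TR-FRET read (665 nm); IC50 by four-parameter fit.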

Data set [2] has as its target EGFR (d746-750/T790M/C797S) (Homo sapiens (Human), UniProt P00533, C797S/DEL746-750/T790M). Put plainly: Inhibitory activity for EGFR (d746-750/T790M/C797S) kinase. The conditions noted are these: ATP 5 μM; read-out: EGFR(d19/T790M/C797S) (IC50). The class given is biochemical. The essentials:
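EGFR d746-750/T790M/C797S (0.03 ng/μL final) preincubated 30 min with compound (10 nM–0.0024 nM, 4-fold, 7 points). Reaction with 5 μM ATP and 0.1 μM ULight-poly GT, 2 h at room temperature; EDTA stop, Eu-anti-phosphotyrosine TR-FRET read at 665 nm, IC50 by four-parameter fit.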

Data set [3] deals with BAF3-EGFR (L858R/T790M/C797S) cells. The data set can be described thus: Inhibition of proliferation of BAF3-EGFR (L858R/T790M/C797S) cells, CCK-8. The class given is cell-based. The following applies: Ba/F3 EGFR, 72 h, read-out: BAF3(EGFR T790M L858R C797S) cell inhibitory activity IC50. A digest of the protocol:
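BaF3 EGFR L858R/T790M/C797S cells seeded at 1.5×10^5 cells/mL in RPMI + 10% FBS, 37 °C, compound added after overnight, duplicates. Viability by CCK-8; % inhibition vs untreated and blank, IC50 by four-parameter fit.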

The subject of data set [4] is BAF3-EGFR (del19/T790M/C797S) cells. Put plainly: Inhibition of proliferation of BAF3-EGFR (Del19/T790M/C797S) cells, CCK-8. The class given is cell-based. The following applies: Ba/F3 EGFR-Del19/T790M/C797S, 72 h, read-out: BAF3(EGFR T790M Del19 C797S) cell inhibitory activity IC50. The protocol:
A flask of BAF3-EGFR (del19/T790M/C797S) cells in the logarithmic growth phase and good conditions was taken, and the cells were collected and added to a centrifuge tube. 20 μL of cells were taken and counted, and the required number of cells (mL) was pipetted and centrifuged at 1200 rpm for 3 min. The supernatant was discarded, and an appropriate amount of plating medium (RPMI medium+10% FBS) was added to adjust the cell density to 1.0×10^5 cells/mL. The cells were seeded on a 96-well plate at 100 μL/well using a multi-channel pipette and cultured in a cell incubator at 37° C., 5% CO2 with saturated humidity. After overnight incubation, compounds were loaded using a nanoliter pipettor, 2 duplicate wells were set for each concentration, and cells without compound added were used as negative controls.
(§1) Inhibition rate (%)=(mean value of negative control group-mean value of experimental group)/(mean value of negative control group−mean value of blank group)×100%.
(§2) A dose-response curve was fitted by four-parameter analysis, with the logarithm of compound concentration serving as abscissa and inhibition rate serving as ordinate, such that IC50 was calculated.

For data set [5], the system named is PC-9 EGFR-Del19-T790M-C797S cells. The data set can be described thus: Inhibition of proliferation of PC-9-EGFR (Del19 T790M C797S) cells, CCK-8. It counts as cell-based. The following applies: 72 h, read-out: PC-9-EGFR (Del19 T790M C797S) cell inhibitory activity IC50. The procedure: PC-9 EGFR-Del19-T790M-C797S cells in the logarithmic growth phase and good conditions were taken, washed with PBS, digested with pancreatin, terminated with a complete medium, collected and added to a centrifuge tube, adjusted to a cell density of 2×10^4 cells/mL, and seeded in a 96-well plate (100 μL/well). Meanwhile, compounds were loaded using a nanoliter pipettor resulting in the final concentrations of the compounds of 1000 nM-0.06 nM, and a control was set, replicate wells for each concentration. After 72 h of incubation in the cell incubator, the assay reagent CCK-8 (manufacturer: Dojindo Laboratories, Beijing; 10 μL/well) was added. After 2 h of incubation in the cell incubator, absorbance was measured at 450 nm on a PerkinElmer Envision microplate reader, and the inhibition rate was calculated.
as §1, §2

A short description of data set [6]: In vitro stability in liver microsomes. The class given is in vitro ADME. The following applies: Human liver microsome. The protocol:
300 μL of the final incubation system contains 30 μL of liver microsomes (protein concentration: 0.15 mg/mL), 30 μL of NADPH+MgCl2, 3 μL of the test compound (in acetonitrile), and 237 μL of PBS buffer (pH 7.4). The proportion of the organic solvent (acetonitrile) was 1%. Samples were prepared in duplicate of 0.3 mL for each species (e.g., human or mouse liver microsomes). Tubes each containing 270 μL of a mixed solution of substrate and enzyme […] were pre-incubated at 37° C. for 5 min. 30 μL of NADPH+MgCl2 was added and the mixture was mixed. 50 μL of the mixture was taken at 0 min, 15 min, 30 min, and 60 min, and 300 μL of glacial acetonitrile containing an internal standard was added to terminate the reaction.
50 μL of the incubated sample was added with 300 μL of glacial acetonitrile containing an internal standard (20 ng/mL diazepam) for precipitation. The mixture was vortexed for 5 min, and centrifuged (12,000 rpm, 4° C.) for 10 min. 75 μL of supernatant was taken and diluted with 75 μL of ultrapure water. After being homogeneously mixed, 0.5 μL of the resulting sample was injected for analysis.
In general terms: Microsomes from liver hold many membrane-bound enzymes, among them those of drug oxidation.

Data set [7] is described as follows: In vivo pharmacokinetics in ICR mice. The conditions noted are these: for AUC(0-t): read-out: AUC(0-t); for Cmax: read-out: Cmax; for MRT last: read-out: MRT(0-t); for Tmax: read-out: Tmax; for half-life: read-out: T½ (converted). The protocol:
The animals to be tested (ICR mice) were fasted for 12 h before administration and food was provided 4 h after administration, and water was freely drunk before and after the experiment and during the experiment.
After intragastric administration, about 0.1 mL of blood was collected from the orbit at 0 min, 15 min, 30 min, 1 h, 2 h, 4 h, 6 h, 8 h, 10 h, and 24 h. After anticoagulation with EDTA-K2, blood samples were transferred to a centrifuge within 30 min, and centrifuged at 4000 rpm for 10 min at 4° C. to separate the plasma. All the plasma samples were collected and immediately stored at −20° C. for testing.
300 μL of acetonitrile solution containing an internal standard ([…] diazepam) was added to 20 μL of the plasma sample to be tested and a standard curve sample. The mixture was shaken and homogeneously mixed for 5 min, and centrifuged at 12,000 rpm for 10 min. 70 μL of supernatant was taken and diluted with 70 μL of ultrapure water. After being mixed well, 2 μL of the resulting sample was subjected to LC/MS/MS, and a chromatogram was recorded.

Setting [8] is: mouse, plasma, PO, 10 mg/kg intragastric.

EGFR (d746-750 (d19)/T790M), sequence (P00533 other isoform, or with tags, fused parts or gaps T790M/del 1-668/del 746-750 limits assumed): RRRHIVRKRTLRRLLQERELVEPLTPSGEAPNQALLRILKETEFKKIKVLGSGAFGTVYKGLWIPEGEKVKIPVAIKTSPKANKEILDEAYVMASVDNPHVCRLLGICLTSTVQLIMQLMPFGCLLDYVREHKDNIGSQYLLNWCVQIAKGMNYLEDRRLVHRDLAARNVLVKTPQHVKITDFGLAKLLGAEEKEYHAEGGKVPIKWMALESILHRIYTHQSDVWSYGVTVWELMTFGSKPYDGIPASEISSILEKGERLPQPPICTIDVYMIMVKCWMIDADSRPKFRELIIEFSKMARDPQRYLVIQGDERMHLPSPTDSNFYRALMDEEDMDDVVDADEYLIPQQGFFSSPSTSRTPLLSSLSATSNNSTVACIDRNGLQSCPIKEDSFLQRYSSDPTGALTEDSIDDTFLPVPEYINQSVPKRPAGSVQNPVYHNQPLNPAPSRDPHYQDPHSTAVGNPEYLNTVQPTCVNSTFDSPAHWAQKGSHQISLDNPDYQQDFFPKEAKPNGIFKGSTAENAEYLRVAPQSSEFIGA
EGFR (d746-750/T790M/C797S), sequence (P00533 other isoform, or with tags, fused parts or gaps T790M/C797S/del 1-694/del 746-750 limits assumed): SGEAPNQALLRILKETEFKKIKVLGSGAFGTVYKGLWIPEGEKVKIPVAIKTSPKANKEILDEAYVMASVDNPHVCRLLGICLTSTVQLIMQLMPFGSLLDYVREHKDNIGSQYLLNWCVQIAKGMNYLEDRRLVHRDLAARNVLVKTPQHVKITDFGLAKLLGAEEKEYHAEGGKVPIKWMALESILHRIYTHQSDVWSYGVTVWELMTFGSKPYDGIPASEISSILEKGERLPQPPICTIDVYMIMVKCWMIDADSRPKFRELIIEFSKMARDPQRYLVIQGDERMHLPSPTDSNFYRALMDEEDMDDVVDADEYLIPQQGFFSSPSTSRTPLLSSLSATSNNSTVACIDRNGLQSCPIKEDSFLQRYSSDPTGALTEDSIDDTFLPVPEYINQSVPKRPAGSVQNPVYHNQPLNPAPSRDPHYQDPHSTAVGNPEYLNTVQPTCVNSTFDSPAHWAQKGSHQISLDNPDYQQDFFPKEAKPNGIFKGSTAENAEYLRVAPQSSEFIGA

As for `Cc1cc2cc(n1)-c1cnn(C)c1OCCC[C@@H](C1CC1)CN1/C(=N/C2=O)Nc2cc(NC(C)C3COC3)ccc21` (stereo partly drawn) [Example 37], the IC50 in data set [1] was 0.013 nM; in data set [2], 0.022 nM; in data set [3], below 5 nM; in data set [4], below 1 nM; in data set [5] it was below 50 nM.
In the case of `Cc1cc2cc(n1)-c1cnn(C)c1OCCC[C@@H](C1CC1)CN1/C(=N/C2=O)Nc2cc(NCC3(C)COC3)ccc21` [Example 40], the IC50 in data set [1] is 0.014 nM; in data set [2], 0.021 nM; in data set [3], below 5 nM; in data set [4], below 1 nM; in data set [5], below 50 nM.
For `Cc1cc2cc(n1)-c1cnn(C)c1OCCC[C@@H](C1CC1)CN1/C(=N/C2=O)Nc2cc(N(C)C3COC3)ccc21` [Example 41], in that order: 0.0089 nM, 0.016 nM, below 5 nM, below 1 nM and below 50 nM.
For `Cc1cc2cc(n1)-c1cnn(C)c1OCCC[C@@H](C1CC1)CN1/C(=N/C2=O)Nc2ccc(NC3CCN(C(C)C)CC3)cc21` [Example 54], in that order: 0.013 nM, 0.021 nM, below 5 nM, below 1 nM and below 50 nM.
Taken in the same sequence, the figures for `CCN1CCC(Nc2ccc3c(c2)N2C[C@H](C4CC4)CCCOc4c(cnn4C)-c4cc(cc(C)n4)C(=O)/N=C/2N3)CC1` [Example 55] were 0.014 nM, 0.02 nM, below 5 nM, below 1 nM and below 50 nM.
Consider `Cc1cc2cc(n1)-c1cnn(C)c1OCCC[C@@H](C1CC1)CN1/C(=N/C2=O)Nc2ccc(NC(C)CN(C)C)cc21` (stereo partly drawn) [Example 63], for which the IC50 in data set [1] is 0.008 nM; in data set [2] it was 0.013 nM; in data set [3], below 5 nM; in data set [4], below 1 nM; in data set [5], below 50 nM.
With `Cc1cc2cc(n1)-c1cnn(C)c1OCCC[C@@H](C1CC1)CN1/C(=N/C2=O)Nc2cc(N[C@@H](C)CN(C)C)ccc21` [Example 68], in data set [6], the “Stability in liver microsomes (residual %, T = 60 min)” value (“Stability … (residual %, T = 60 min)” below) was found to be 78.57%. In data set [7] (setting [8]), the AUC(0-inf) turned out to be 1960 ng·h/mL, the exposure AUC(0-t) is 1950 ng·h/mL, the Cmax turned out to be 148 ng/mL and the MRT last came out at 7.54 h. Further, in data set [7] (setting [8]), the Tmax was 4 h and the half-life is 3.04 h.
As to `Cc1cc2cc(n1)-c1cnn(C)c1OCCC[C@@H](C1CC1)CN1/C(=N/C2=O)Nc2cc(NCCCN3CCCCC3)ccc21` [Example 71], the “Stability … (residual %, T = 60 min)” value in data set [6] came to 82.82%. Further, in data set [7] (setting [8]), the AUC(0-inf) stood at 1680 ng·h/mL, the AUC(0-t) was 1620 ng·h/mL, the Cmax is 138 ng/mL and the MRT last was found to be 7.85 h. For the same compound, in data set [7] (setting [8]), the Tmax is 6 h and the half-life is 4.5 h.
Turning to `Cc1cc2cc(n1)-c1cnn(C)c1OCCC[C@@H](C1CC1)CN1/C(=N/C2=O)Nc2cc(NCCCN3CCOCC3)ccc21` [Example 74], in data set [3], the IC50 was below 5 nM. The IC50 in data set [4] is below 1 nM. In data set [5], the IC50 is below 50 nM. In data set [7] (IV), this compound registered a CLz of 70.5 mL/min/kg. In data set [7] (mouse, plasma, 1 mg/kg, IV), the AUC(0-inf) was found to be 236 ng·h/mL, the AUC(0-t) came out at 233 ng·h/mL, the MRT last came out at 1.35 h and the half-life is 1.84 h. In addition, the bioavailability in data set [7] (mouse, plasma, 10 mg/kg, PO vs IV) came out at 35.4%. Besides, in data set [7] (setting [8]), the AUC(0-inf) turned out to be 830 ng·h/mL, the AUC(0-t) came to 824 ng·h/mL, the Cmax worked out at 97.6 ng/mL and the MRT last turned out to be 6.42 h. In data set [7] (setting [8]), the Tmax was determined as 0.5 h and the half-life is 3.18 h.
In the case of `Cc1cc2cc(n1)-c1cnn(C)c1OCCC[C@@H](C1CC1)CN1/C(=N/C2=O)Nc2ccc(NCCCN3CCCCC3)cc21` [Example 80], the IC50 in data set [1] was 0.01 nM; in data set [2], 0.035 nM; in data set [3] it was below 5 nM; in data set [4] it was below 1 nM; in data set [5], below 50 nM.
In the case of `Cc1cc2cc(n1)-c1cnn(C)c1OCCC[C@@H](C1CC1)CN1/C(=N/C2=O)Nc2ccc(NCCCN3CCOCC3)cc21` [Example 81], the IC50 in data set [1] is 0.011 nM; in data set [2] it was 0.037 nM; in data set [3], below 5 nM; in data set [4] it was below 1 nM; in data set [5], below 50 nM.
In the case of `Cc1cc2cc(n1)-c1cnn(C)c1OCCC[C@@H](C1CC1)CN1/C(=N/C2=O)Nc2ccc(NCCN3CCCC3)cc21` [Example 82], the IC50 in data set [1] is 0.0085 nM; in data set [2] it was 0.02 nM; in data set [3], below 5 nM; in data set [4], below 1 nM; in data set [5], below 50 nM.
Taken in the same sequence, the figures for `Cc1cc2cc(n1)-c1cnn(C)c1OCCC[C@@H](C1CC1)CN1/C(=N/C2=O)Nc2cc(NC(C)C3(C)COC3)ccc21` (stereo partly drawn) [Example 89] were 0.51 nM, 0.36 nM, below 5 nM, below 1 nM and below 50 nM.
With `[2H]C([2H])([2H])N(C[C@H](C)Nc1ccc2c(c1)N/C1=N/C(=O)c3cc(C)nc(c3)-c3cnn(C)c3OCCC[C@@H](C3CC3)CN12)C([2H])([2H])[2H]` [Example 124], the IC50 in data set [2] is 0.12 nM. In addition, in data set [6], the “Stability … (residual %, T = 60 min)” value stood at 77.10%.

The AUC(0-inf) is the area under the concentration-time curve extrapolated to infinity. A word on the AUC(0-t): it is exposure summed from dosing to a finite time, without extrapolation to infinity. What is called Cmax is the highest concentration seen after dosing. As usually defined, the Tmax is the time at which the peak concentration occurs. By bioavailability is commonly meant dose-corrected exposure relative to a reference, in per cent. A lower bioavailability goes with little systemic uptake.
